31 molecules from US7973061B2, “Anaplastic lymphoma kinase modulators and methods of use” (Exelixis, Inc., priority 2004, dated 2011) can be followed below.

SMILES strings stand for the structures.

This test addresses T1, ALK (baculovirus expressed human ALK kinase domain F1098-K1410) (Homo sapiens, UniProt Q9UM73).
T1 construct: human ALK kinase domain F1098-K1410; made in house
The experiment in a line: biochemical. As to conditions: 1 μM ATP, 4 μM poly-AEKY, 12 nM ALK, 2 hours at ambient temperature; read-out: ALK IC50. The essentials:
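Inhibitors were tested at 10 concentrations, and IC50 was derived from a sigmoidal fit (Min, Max, Hill slope). Kinase activity was measured as percent ATP left after a 2 h reaction at room temperature, detected by luciferase-luciferin chemiluminescence. The ATP level was set close to KM for the ALK kinase domain F1098-K1410.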

T1 sequence (Q9UM73 1098-1410): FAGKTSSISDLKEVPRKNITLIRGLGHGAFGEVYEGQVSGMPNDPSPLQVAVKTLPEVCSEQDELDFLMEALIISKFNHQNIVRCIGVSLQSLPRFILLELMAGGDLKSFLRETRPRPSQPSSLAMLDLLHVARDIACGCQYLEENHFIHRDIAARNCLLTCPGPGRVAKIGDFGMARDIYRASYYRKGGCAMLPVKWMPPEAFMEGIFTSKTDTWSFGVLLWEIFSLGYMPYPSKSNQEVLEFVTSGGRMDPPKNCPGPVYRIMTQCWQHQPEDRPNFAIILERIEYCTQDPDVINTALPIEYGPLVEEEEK

As for `O=C(COc1ccc(OC(F)(F)F)cc1)NCc1nc(C(=O)NCc2ccc(Cl)cc2)cs1` [Entry 227, N-[(4-chlorophenyl)methyl]-2-({[({4-[(trifluoromethyl)oxy]phenyl}oxy)acetyl]amino}methyl)-1,3-thiazole-4-carboxamide], the half-inhibitory concentration (IC50) was 500 to 2000 nM.
As for `O=C(COc1ccc(OC(F)(F)F)cc1)NCc1nc(C(=O)NC2CCCC2)cs1` [Entry 228, N-cyclopentyl-2-({[({4-[(trifluoromethyl)oxy]phenyl}oxy)acetyl]amino}methyl)-1,3-thiazole-4-carboxamide], the IC50 was in the range of 500 to 2000 nM.
With `COc1ccccc1CNC(=O)c1csc(CNC(=O)Cc2ccc3ccccc3c2)n1` [Entry 229, N-{[2-(methyloxy)phenyl]methyl}-2-{[(naphthalen-2-ylacetyl)amino]methyl}-1,3-thiazole-4-carboxamide], the IC50 is 500 to 2000 nM.
Take `CCOc1cccc(CCNC(=O)c2coc(CNC(=O)COc3ccc(OC(F)(F)F)cc3)n2)c1` [Entry 230, N-{2-[3-(ethyloxy)phenyl]ethyl}-2-({[({4-[(trifluoromethyl)oxy]phenyl}oxy)acetyl]amino}methyl)-1,3-oxazole-4-carboxamide]: the IC50 is 500 to 2000 nM.
Turning to `O=C(COc1ccc(OC(F)(F)F)cc1)NCc1nc(C(=O)NCCc2ccc(Br)cc2)co1` [Entry 231, N-[2-(4-bromophenyl)ethyl]-2-({[({4-[(trifluoromethyl)oxy]phenyl}oxy)acetyl]amino}methyl)-1,3-oxazole-4-carboxamide], the IC50 lay within 500 to 2000 nM.
Take `CSc1ccc(CC(=O)NCc2nc(C(=O)NCCc3cccc(Cl)c3)cs2)cc1` [Entry 232, N-[2-(3-chlorophenyl)ethyl]-2-[({[4-(methylthio)phenyl]acetyl}amino)methyl]-1,3-thiazole-4-carboxamide]: the IC50 fell in the range of 500 to 2000 nM.
In the case of `C[C@@H](NC(=O)c1csc(CNC(=O)COc2ccc(OC(F)(F)F)cc2)n1)C(C)(C)C` [Entry 233, 2-({[({4-[(trifluoromethyl)oxy]phenyl}oxy)acetyl]amino}methyl)-N-[(1R)-1,2,2-trimethylpropyl]-1,3-thiazole-4-carboxamide], the IC50 was in the range of 500 to 2000 nM.
The figure for `COc1cccc(CCNC(=O)c2coc(CNC(=O)COc3ccc(OC(F)(F)F)cc3)n2)c1` [Entry 234, N-{2-[3-(methyloxy)phenyl]ethyl}-2-({[({4-[(trifluoromethyl)oxy]phenyl}oxy)acetyl]amino}methyl)-1,3-oxazole-4-carboxamide] is 500 to 2000 nM; for `CCOc1ccccc1CNC(=O)c1coc(CNC(=O)COc2ccc(OC(F)(F)F)cc2)n1` [Entry 235, N-{[2-(ethyloxy)phenyl]methyl}-2-({[({4-[(trifluoromethyl)oxy]phenyl}oxy)acetyl]amino}methyl)-1,3-oxazole-4-carboxamide] it is 500 to 2000 nM; for `O=C(NCCc1cccc(Cl)c1)c1csc(CNC(=O)C2(c3ccc(Cl)cc3)CC2)n1` [Entry 236, 2-[({[1-(4-chlorophenyl)cyclopropyl]carbonyl}amino)methyl]-N-[2-(3-chlorophenyl)ethyl]-1,3-thiazole-4-carboxamide] it is 500 to 2000 nM.
Take `CN(C)c1ccc(CNC(=O)c2csc(CNC(=O)COc3ccc(OC(F)(F)F)cc3)n2)cc1` [Entry 237, N-{[4-(dimethylamino)phenyl]methyl}-2-({[({4-[(trifluoromethyl)oxy]phenyl}oxy)acetyl]amino}methyl)-1,3-thiazole-4-carboxamide]: the IC50 lay in the range of 500 to 2000 nM.
The figure for `CCCCCCN(CCC#N)C(=O)c1csc(CNC(=O)COc2ccc(OC(F)(F)F)cc2)n1` [Entry 238, N-(2-cyanoethyl)-N-hexyl-2-({[({4-[(trifluoromethyl)oxy]phenyl}oxy)acetyl]amino}methyl)-1,3-thiazole-4-carboxamide] is 500 to 2000 nM.
With `O=C(COc1ccc(Br)cc1)NCc1nc(C(=O)NCCc2ccccc2F)cs1` [Entry 239, 2-[({[(4-bromophenyl)oxy]acetyl}amino)methyl]-N-[2-(2-fluorophenyl)ethyl]-1,3-thiazole-4-carboxamide], the IC50 is 500 to 2000 nM.
As for `C[C@H](CNC(=O)c1coc(CNC(=O)COc2ccc(OC(F)(F)F)cc2)n1)c1ccccc1` [Entry 240, N-[(2S)-2-phenylpropyl]-2-({[({4-[(trifluoromethyl)oxy]phenyl}oxy)acetyl]amino}methyl)-1,3-oxazole-4-carboxamide], the figure is 500 to 2000 nM.
As for `O=C(COc1ccc(OC(F)(F)F)cc1)NCc1nc(C(=O)NCc2cccnc2)cs1` [Entry 241, N-(pyridin-3-ylmethyl)-2-({[({4-[(trifluoromethyl)oxy]phenyl}oxy)acetyl]amino}methyl)-1,3-thiazole-4-carboxamide], the figure is 500 to 2000 nM.
As for `O=C(COc1ccc(OC(F)(F)F)cc1)NCc1nc(C(=O)NCCc2ccccc2)co1` [Entry 242, N-(2-phenylethyl)-2-({[({4-[(trifluoromethyl)oxy]phenyl}oxy)acetyl]amino}methyl)-1,3-oxazole-4-carboxamide], the figure is 500 to 2000 nM.
In the case of `Cc1ccc(N2CCN(C(=O)c3csc(CNC(=O)COc4ccc(OC(F)(F)F)cc4)n3)CC2C)cc1` (stereo not shown) [Entry 243, N-[(4-{[3-methyl-4-(4-methylphenyl)piperazin-1-yl]carbonyl}-1,3-thiazol-2-yl)methyl]-2-({4-[(trifluoromethyl)oxy]phenyl}oxy)acetamide], the IC50 fell in the range of 500 to 2000 nM.
The figure for `O=C(COc1ccc(OC(F)(F)F)cc1)NCc1nc(C(=O)NCc2ccc(F)cc2C(F)(F)F)cs1` [Entry 244, N-{[4-fluoro-2-(trifluoromethyl)phenyl]methyl}-2-({[({4-[(trifluoromethyl)oxy]phenyl}oxy)acetyl]amino}methyl)-1,3-thiazole-4-carboxamide] is 500 to 2000 nM; for `CCCC1CCN(C(=O)c2csc(CNC(=O)COc3ccc(OC(F)(F)F)cc3)n2)CC1` [Entry 245, N-({4-[(4-propylpiperidin-1-yl)carbonyl]-1,3-thiazol-2-yl}methyl)-2-({4-[(trifluoromethyl)oxy]phenyl}oxy)acetamide] it is 500 to 2000 nM; for `O=C(COc1ccc(OC(F)(F)F)cc1)NCc1nc(C(=O)NCCc2ccc(Cl)cc2)co1` [Entry 246, N-[2-(4-chlorophenyl)ethyl]-2-({[({4-[(trifluoromethyl)oxy]phenyl}oxy)acetyl]amino}methyl)-1,3-oxazole-4-carboxamide] it is 500 to 2000 nM.
For `CN1CCCC1CCNC(=O)c1csc(CNC(=O)COc2ccc(OC(F)(F)F)cc2)n1` (stereo not shown) [Entry 247, N-[2-(1-methylpyrrolidin-2-yl)ethyl]-2-({[({4-[(trifluoromethyl)oxy]phenyl}oxy)acetyl]amino}methyl)-1,3-thiazole-4-carboxamide], the IC50 was 500 to 2000 nM.
In the case of `CCCCOc1ccc(NC(=O)NCc2nc(C(=O)NCc3cccc(OC)c3OC)cs2)cc1` [Entry 248, N-{[2,3-bis(methyloxy)phenyl]methyl}-2-{[({[4-(butyloxy)phenyl]amino}carbonyl)amino]methyl}-1,3-thiazole-4-carboxamide], the IC50 lay within 500 to 2000 nM.
The figure for `O=C(COc1ccc(OC(F)(F)F)cc1)NCc1nc(C(=O)NCc2ccco2)cs1` [Entry 249, N-(furan-2-ylmethyl)-2-({[({4-[(trifluoromethyl)oxy]phenyl}oxy)acetyl]amino}methyl)-1,3-thiazole-4-carboxamide] is 500 to 2000 nM.
As for `CCOc1cc(CCNC(=O)c2coc(CNC(=O)COc3ccc(OC(F)(F)F)cc3)n2)ccc1OC` [Entry 250, N-{2-[3-(ethyloxy)-4-(methyloxy)phenyl]ethyl}-2-({[({4-[(trifluoromethyl)oxy]phenyl}oxy)acetyl]amino}methyl)-1,3-oxazole-4-carboxamide], the figure is 500 to 2000 nM; as for `O=C(COc1ccc(OC(F)(F)F)cc1)NCc1nc(C(=O)NCCc2c[nH]c3ccccc23)co1` [Entry 251, N-[2-(1H-indol-3-yl)ethyl]-2-({[({4-[(trifluoromethyl)oxy]phenyl}oxy)acetyl]amino}methyl)-1,3-oxazole-4-carboxamide], 500 to 2000 nM; as for `O=C(COc1ccc(OC(F)(F)F)cc1)NCc1nc(C(=O)N2CCCC3CCCCC32)cs1` (stereo not shown) [Entry 252, N-{[4-(octahydroquinolin-1(2H)-ylcarbonyl)-1,3-thiazol-2-yl]methyl}-2-({4-[(trifluoromethyl)oxy]phenyl}oxy)acetamide], 500 to 2000 nM.
Regarding `CC1CN(C(=O)c2csc(CNC(=O)COc3ccc(OC(F)(F)F)cc3)n2)CCN1c1ccccc1` (stereo not shown) [Entry 253, N-({4-[(3-methyl-4-phenylpiperazin-1-yl)carbonyl]-1,3-thiazol-2-yl}methyl)-2-({4-[(trifluoromethyl)oxy]phenyl}oxy)acetamide], the IC50 is 500 to 2000 nM.
Take `CC(C)(C)OC(=O)NC1CCN(C(=O)c2csc(CNC(=O)COc3ccc(OC(F)(F)F)cc3)n2)CC1` [Entry 254, 1,1-dimethylethyl(1-{[2-({[({4-[(trifluoromethyl)oxy]phenyl}oxy)acetyl]amino}methyl)-1,3-thiazol-4-yl]carbonyl}piperidin-4-yl)carbamate]: the 50% inhibitory concentration (IC50) is 500 to 2000 nM.
With `C[C@@H]1CN(C(=O)c2csc(CNC(=O)COc3ccc(OC(F)(F)F)cc3)n2)C[C@H](C)O1` [Entry 255, N-[(4-{[(2R,6S)-2,6-dimethylmorpholin-4-yl]carbonyl}-1,3-thiazol-2-yl)methyl]-2-({4-[(trifluoromethyl)oxy]phenyl}oxy)acetamide], the IC50 lay in the range of 500 to 2000 nM.
Regarding `COc1cccc(CNC(=O)c2csc(CNC(=O)Cc3ccc4ccccc4c3)n2)c1OC` [Entry 256, N-{[2,3-bis(methyloxy)phenyl]methyl}-2-{[(naphthalen-2-ylacetyl)amino]methyl}-1,3-thiazole-4-carboxamide], the IC50 was in the range of 500 to 2000 nM.
With `CC1CCCCC1NC(=O)c1coc(CNC(=O)COc2ccc(OC(F)(F)F)cc2)n1` (stereo not shown) [Entry 257, N-(2-methylcyclohexyl)-2-({[({4-[(trifluoromethyl)oxy]phenyl}oxy)acetyl]amino}methyl)-1,3-oxazole-4-carboxamide], the IC50 was in the range of 500 to 2000 nM.

Usually IC50 stands for the concentration that gives 50% inhibition.
